One data set relates to normal cell lines. Details: method as in PMID 25215430. The settings on record: cell line not given; cited from earlier work.

Each structure is given as a SMILES string. Structures can show the parent of a compound that is named as a salt.

Results on 21 compounds are retold here after paper PMC6010013, “Synthesis, physiochemical property and antimicrobial activity of novel quaternary ammonium salts” (Journal of Enzyme Inhibition and Medicinal Chemistry, 2017).

What is called melting point is the temperature of the solid-liquid transition.

`C[N+](CCO)(CCO)CCCCCCSc1nc2ccccc2s1` (as salt: bromide) [Compound 13a]: the melting point lay within 142 to 143 °C.
For `C[N+](CCO)(CCO)CCCCCCCCCCSc1nnc(-c2ccc(F)cc2)o1` (as salt: bromide) [Compound 5c], the melting point lay within 102 to 103 °C.
The same measure, in the same setting: the value for `C[N+](CCO)(CCO)CCCCCCSc1nnc(-c2ccc(F)cc2)o1` (as salt: bromide) [Compound 5a] was 74 to 76 °C; that for `Cc1nnc(SCCCCCCCCCC[N+](C)(CCO)CCO)s1` (as salt: bromide) [Compound 16c] was 77 to 78 °C.
Consider `CCCCCCCCCCCC[N+](C)(CCO)CCO` [Compound C12QAS, N-methyl-N-dodecyl-N,N-bis(2-hydroxyethyl) ammonium bromides], for which the “Cytotoxicity IC50” value in the data set on normal cell lines is listed as “ca. 4.00 μg/mL”.
On to `CC(C)(C)c1ccc(-c2nnc(SCCCCCCCCCC[N+](C)(CCO)CCO)o2)cc1` (as salt: bromide) [Compound 7c], for which the melting point lay in the range of 78 to 80 °C.
Still for that read-out and setting: under `Cc1nnc(SCCCCCC[N+](C)(CCO)CCO)s1` (as salt: bromide) [Compound 16a] stands 56 to 57 °C; under `C[N+](CCO)(CCO)CCCCCCCCCCSc1nc2ccccc2o1` (as salt: bromide) [Compound 10c], 128 to 129 °C.
On the same count and under the same terms, under `C[N+](CCO)(CCO)CCCCCCCCSc1nnc(-c2ccc(F)cc2)o1` (as salt: bromide) [Compound 5b] stands 81 to 82 °C; under `Cc1nnc(SCCCCCCCC[N+](C)(CCO)CCO)s1` (as salt: bromide) [Compound 16b], 74 to 75 °C.
The same measure, in the same setting: the value for `C[N+](CCO)(CCO)CCCCCCCCSc1nnc(-c2ccc(C(F)(F)F)cc2)o1` (as salt: bromide) [Compound 6b] was 78 to 80 °C; that for `C[N+](CCO)(CCO)CCCCCCCCCCCCSc1nc2ccccc2s1` (as salt: bromide) [Compound 13d] was 106 to 107 °C; that for `Cc1nnc(SCCCCCCCCCCCC[N+](C)(CCO)CCO)s1` (as salt: bromide) [Compound 16d] was 95 to 96 °C.
For the compound `C[N+](CCO)(CCO)CCCCCCSc1nnc(-c2ccc(C(F)(F)F)cc2)o1` (as salt: bromide) [Compound 6a], the melting point was 93 to 94 °C.
Same read-out and setting: the value for `CC(C)(C)c1ccc(-c2nnc(SCCCCCC[N+](C)(CCO)CCO)o2)cc1` (as salt: bromide) [Compound 7a] was 78 to 80 °C; that for `CC(C)(C)c1ccc(-c2nnc(SCCCCCCCC[N+](C)(CCO)CCO)o2)cc1` (as salt: bromide) [Compound 7b] was 71 to 72 °C.
Same read-out and setting: under `C[N+](CCO)(CCO)CCCCCCCCSc1nc2ccccc2o1` (as salt: bromide) [Compound 10b] stands 125 to 127 °C; under `C[N+](CCO)(CCO)CCCCCCCCSc1nc2ccccc2s1` (as salt: bromide) [Compound 13b], 87 to 89 °C.
Still for that read-out and setting: under `C[N+](CCO)(CCO)CCCCCCCCCCSc1nc2ccccc2s1` (as salt: bromide) [Compound 13c] stands 111 to 112 °C.
In the case of `C[N+](CCO)(CCO)CCCCCCCCCCCCSc1nnc(-c2ccc(F)cc2)o1` (as salt: bromide) [Compound 5d], the melting point lay in the range of 98 to 100 °C.
In turn, `C[N+](CCO)(CCO)CCCCCCCCCCCCSc1nc2ccccc2o1` (as salt: bromide) [Compound 10d] showed a melting point of 125 to 127 °C.
